Experimental findings from ChEMBL document CHEMBL1124229, “Spiro hydantoin aldose reductase inhibitors” (J Med Chem, 1988) are described below.

Molecules are shown by their SMILES.

The target in data set [1] is T1, Aldo-keto reductase family 1 member B1 (Bos taurus, UniProt P16116). Description: In vitro inhibition of partially purified calf lens aldose reductase.
The species entered for data set [2] is Rattus norvegicus. Description: Ability to cause 50% reduction in sorbitol levels of sciatic nerve of streptozotocinized rats was determined; value ranges from 0.25-0.75. In kind it is functional.
For data set [3], the target named is T1, Aldo-keto reductase family 1 member B1. Description: Inhibition of partially purified calf lens aldose reductase; value ranges from 10E-4 to 10e-5 M.
Data set [4] is filed under the species Rattus norvegicus. Description: Ability to cause 50% reduction in sorbitol levels of sciatic nerve of streptozotocinized rats was determined; value ranges from 10-25. Format: functional.
The nature of data set [5]: pKa in DMF/H2O was measured. In kind it is physicochemical.
Data set [6] is filed under the species Rattus norvegicus. Kind of data set: 50% reduction in sorbitol accumulation in isolated sciatic nerves incubated in the presence of high glucose concentration. In kind it is functional. The note with it: Sciatic nerve.
Data set [7] deals with Aldo-keto reductase family 1 member B1 (Homo sapiens, UniProt P15121). Description: In vitro inhibitory activity towards partially purified human placenta aldose reductase.
For data set [8], the species on record is Rattus norvegicus. Kind of data set: 50% reduction in sorbitol accumulation in isolated sciatic nerves incubated in the presence of high glucose concentration; value ranges from 10E-2 - 10E-3. In kind it is functional. The note with it: Sciatic nerve.
The species entered for data set [9] is Rattus norvegicus. Description: Ability to cause 50% reduction in sorbitol levels of sciatic nerve of streptozotocinized rats was determined. In kind it is functional.
Data set [10] concerns the target T1, Aldo-keto reductase family 1 member B1. Description: In vitro inhibition of partially purified calf lens aldose reductase; value ranges from 10E-5 to 10E-6.
For data set [11], the species on record is Rattus norvegicus. Description: Dose causing 50% reduction in sorbitol accumulation in sciatic nerves of streptozotocinized rats, (tid).
The species entered for data set [12] is Rattus norvegicus. Kind of data set: Ability to cause 50% reduction in sorbitol levels of sciatic nerve of streptozotocinized rats was determined; value ranges from 1.5-10. In kind it is functional.
Data set [13] has as its target T1, Aldo-keto reductase family 1 member B1. Kind of data set: In vitro inhibitory activity towards partially purified calf lens aldose reductase; value ranges from 10E-6 - 10E-7.
Data set [14] is filed under the species Rattus norvegicus. Kind of data set: Ability to cause 50% reduction in sorbitol levels of sciatic nerve of streptozotocinized rats was determined; value ranges from 25-100. Format: functional.
For data set [15], the target named is T1, Aldo-keto reductase family 1 member B1. Description: In vitro inhibitory activity towards partially purified calf lens aldose reductase; value ranges from 10E-4 - 10E-6.
Data set [16] is filed under the species Rattus norvegicus. Description: Ability to cause 50% reduction in sorbitol levels of sciatic nerve of streptozotocinized rats was determined; value ranges from 2.5-5. In kind it is functional.
The species named for data set [17] is Rattus norvegicus. Kind of data set: Ability to cause 50% reduction in sorbitol levels of sciatic nerve of streptozotocinized rats was determined; value ranges from 1.5-5. In kind it is functional.
The target of data set [18] is Aldo-keto reductase family 1 member B1 (Rattus norvegicus, UniProt P07943). Kind of data set: In vitro inhibitory activity towards partially purified rat lens aldose reductase.
The target of data set [19] is T1, Aldo-keto reductase family 1 member B1. Kind of data set: In vitro inhibitory activity towards partially purified calf lens aldose reductase; value ranges from 10E-4- 10E-5.
Data set [20] is filed under the species Rattus norvegicus. Kind of data set: Ability to cause 50% reduction in sorbitol levels of sciatic nerve of streptozotocinized rats was determined; value ranges from 250-500. Format: functional.
For data set [21], the species on record is Rattus norvegicus. Description: Ability to cause 50% reduction in sorbitol levels of sciatic nerve of streptozotocinized rats was determined; value ranges from 5-10. Format: functional.
Setting [22] is: Rattus norvegicus, Sciatic nerve, read-out: ED50.

On to `O=C1NC(=O)C2(CCOc3ccc(Cl)cc32)N1` (stereo not drawn), for which the IC50 (commonly the midpoint of a concentration-inhibition curve) in data set [1] was determined as 0.1 µM. In the data set filed under Rattus norvegicus [2], the ED50 is 0.25 mg/kg.
As to `O=C1NC(=O)C2(CCCc3ccccc32)N1` (stereo not drawn), it took 100 µM to reach half-maximal inhibition in data set [3] (IC50). In the data set listed under Rattus norvegicus [4], this compound registered an ED50 of 10 mg/kg.
As for `O=C1NC(=O)C(N2C(=O)c3cccc4cccc(c34)C2=O)N1` (stereo not drawn), the pKa (usually the negative logarithm of the acid dissociation constant) in data set [5] stood at 9.5. Also, the IC50 is around 10 µM in the data set listed under Rattus norvegicus [6] and 8 µM in data set [7].
For the compound `O=C(O)C1CCOc2ccc(Cl)cc21` (stereo not drawn), the IC50 in the data set listed under Rattus norvegicus [8] stood at 10000 µM; in data set [10] it was 10 µM. In addition, the ED50 in the data set filed under Rattus norvegicus [9] (setting [22]) was above 25 mg/kg; in the data set filed under Rattus norvegicus [11], above 0.0001 M/kg. This compound also yielded a pKa in data set [5] of 4.9.
`O=C1NC(=O)[C@@]2(CCOc3ccc(F)cc32)N1` (stereo in doubt; 115) [SORBINIL]: the ED50 in the data set listed under Rattus norvegicus [9] came to 0.25 mg/kg; in the data set listed under Rattus norvegicus [11], 1e-05 M/kg. In data set [5], this compound registered a pKa of 8.7. The IC50 in the data set listed under Rattus norvegicus [6] was determined as 1 µM.
In the data set filed under Rattus norvegicus [12], `O=C1NC(=O)C2(CCOc3c2ccc2ncccc32)N1` (stereo not drawn) yielded an ED50 of 1.5 mg/kg. Inhibition in [13] was half-maximal at 1 µM (IC50).
The compound `COc1ccc(F)c2c1CCCC21NC(=O)NC1=O` (stereo not drawn) had an IC50 in [1] above 100 µM. This compound also yielded an ED50 in the data set listed under Rattus norvegicus [2] above 25 mg/kg.
As for `O=C1NC(=O)C2(CCc3ccccc32)N1` (stereo not drawn), the IC50 in data set [3] turned out to be 100 µM. In addition, the ED50 in the data set listed under Rattus norvegicus [9] (setting [22]) and in the data set listed under Rattus norvegicus [4] was 5 mg/kg in each case.
In data set [1], `O=c1cnn(Cc2ccccc2)c(=O)[nH]1` gave an IC50 of 10 µM. Moreover, the ED50 in the data set filed under Rattus norvegicus [14] amounted to 25 mg/kg.
On to `O=C(O)C1CCOc2ccc(F)cc21` (stereo not drawn), for which the ED50 in the data set listed under Rattus norvegicus [9] (setting [22]) was above 25 mg/kg. In [15], this compound showed an IC50 of 100 µM.
Regarding `O=C1NC(=O)C2(CCn3c(=O)ccc4cccc2c43)N1` (stereo not drawn), the ED50 in the data set filed under Rattus norvegicus [16] came to 2.5 mg/kg. Further, in data set [13], it took 1 µM to reach half-maximal inhibition (IC50).
As for `O=C(O)CC1(CC(=O)O)CCCC1`, the ED50 in the data set filed under Rattus norvegicus [9] (setting [22]) was around 500 mg/kg. For the same compound, the IC50 worked out at 10 µM in data set [10] and 1 µM in data set [13].
On to `CN1C(=O)N[C@]2(CCOc3ccc(F)cc32)C1=O`, for which the ED50 in the data set filed under Rattus norvegicus [9] (setting [22]) is below 10 mg/kg. This compound also yielded an IC50 in data set [7] above 100 µM.
`O=C1NC(=O)C2(CCOc3c2cc(Cl)c2ccccc32)N1` (stereo not drawn): in [1], the concentration for half-maximal inhibition (IC50) was below 0.1 µM. The ED50 in the data set filed under Rattus norvegicus [17] was found to be 1.5 mg/kg.
Regarding `CN1C(=O)NC(=O)[C@]12CCOc1ccc(F)cc12`, the ED50 in the data set listed under Rattus norvegicus [9] (setting [22]) was below 10 mg/kg. In addition, the IC50 in data set [7] amounted to 100 µM.
Turning to `C[C@@H]1O[C@@H](Oc2c(-c3ccc(O)c(O)c3)oc3cc(O)cc(O)c3c2=O)[C@H](O)[C@H](O)[C@H]1O` [QUERCITRIN], the ED50 in the data set filed under Rattus norvegicus [9] (setting [22]) is above 40 mg/kg. Also, the IC50 was 10 µM in data set [10] and around 0.1 µM in data set [18].
For the compound `COc1ccc2c(c1)CCCC21NC(=O)NC1=O` (stereo not drawn), in the data set filed under Rattus norvegicus [9] (setting [22]), the ED50 is above 25 mg/kg. Further, in [19], the midpoint of inhibition, the IC50, lay at 100 µM.
Regarding `O=C1NC(=O)[C@@]2(CCOc3ccc(Cl)cc32)O1`, the IC50 in [1] came to 0.1 µM; in the data set listed under Rattus norvegicus [6], 10 µM. The ED50 came out at 2.5 mg/kg in the data set filed under Rattus norvegicus [9] (setting [22]) and 1e-05 M/kg in the data set filed under Rattus norvegicus [11]. Further, the pKa in data set [5] turned out to be 5.6.
As to `COc1ccc2c(c1)C1(CCC2)NC(=O)NC1=O` (stereo not drawn), in [1], the IC50 is 100 µM. Moreover, the ED50 in the data set filed under Rattus norvegicus [4] came out at 10 mg/kg.
Take `CN1C(=O)N(C)[C@@]2(CCOc3ccc(F)cc32)C1=O`: the ED50 in the data set listed under Rattus norvegicus [9] (setting [22]) was below 10 mg/kg. The 50% inhibitory concentration (IC50) in data set [7] was above 100 µM.
Take `O=C1NC(=O)C2(CCS(=O)(=O)c3ccc(F)cc32)N1` (stereo not drawn): in the data set listed under Rattus norvegicus [9] (setting [22]), the ED50 is 2.5 mg/kg. In data set [13], this compound yielded an IC50 of 1 µM.
For `O=C1NC(=O)C2(CCSc3ccc(F)cc32)N1` (stereo not drawn) the same measures were 1.5 mg/kg and 1 µM.
On to `O=C(O)CN1C(=O)c2cccc3cccc(c23)C1=O` [ALRESTATIN], for which the IC50 was 10 µM in data set [10] and 1000 µM in the data set filed under Rattus norvegicus [6]. Moreover, the pKa in data set [5] amounted to 4.8. In addition, the ED50 amounted to 0.001 M/kg in the data set filed under Rattus norvegicus [11] and 250 mg/kg in the data set filed under Rattus norvegicus [20].
For the compound `O=C1NC(=O)C2(CCSc3ccccc32)N1` (stereo not drawn), in data set [1], the IC50 is 10 µM. This compound returned an ED50 in the data set listed under Rattus norvegicus [21] of 5 mg/kg.
